Data published in patent US20170303557A1, “PURIFICATION OF POLYPHENOLS” (NESTEC S.A., priority 2014, published 2017).

Assay: Model study: degradation of 5-CQA and formation of its ethylester in 75% ethanolic solution (LC/MS-DAD)
Format: physicochemical
Conditions: 75% ethanol
Experimental: During the experiment 5-CQA was stored in the presence of ethanol (75% ethanolic solution) by varying the following parameters pH, temperature and time.
The process was conducted under the following conditions using 5-CQA esterification as the model.
For each trial 10 mg of 5-CQA were dissolved in 40 mL of a 75% ethanolic solution. • pH studies: The pH was adjusted to pH 1, pH 2.7 and pH 4 with hydrochloric acid (32%) and to pH 12 by using NaOH solution (4 N) and all samples were kept in a lab oven at a temperature of 80° C. for 2 hours. • Temperature studies: CQA solutions were adjusted to pH 1 with hydrochloric acid (32%) and kept for 2 hours either at room temperature, 50° C. or 80° C. in a lab oven. • Time studies: 5-CQA solutions were adjusted to pH 1 and kept at room temperature or 50° C. for 1 h, 2 h, 3 h and 36 h (RT only). • System: The analysis was performed on a LC-DAD-MS system using LCQ Deca mass spectrometer (Thermo Finnigan), with a DAD detector (Thermo Finnigan) and a Rheos HPLC system (Thermo Finnigan). • Sample Preparation: For each parameter an aliquot of the solution was diluted 1:10 and directly used for LC/MS-DAD analysis. • HPLC Method: The separation was performed at ambient temperature on a Zorbax Eclipse C18 column, 5 μm, 150*3 mm (Agilent). A binary gradient of A/B (A: 0.1% formic acid, B: methanol) was applied. • MS parameters: The Mass spectrometer used is the LCQ-Deca operated in FullScan and data dependant MS/MS mode (m/z 100-1000) for compound identification.

- ester detectable as compared to the native 5-CQA (pH 1, 50° C., 2 h): Up to 40%
- ester formed (pH 1, 50° C., period corresponding to desorption duration of up-scaled protocol (within first 3 h)): 30%
- 5-CQA transformed into its ethylester (pH 1, RT, 2 h): only a small amount
- ester formed (pH 1, room temperature, 3 h): 3%
- ester formed (pH 1, room temperature, 36 h): 14%
- 5-CQA esterification (pH 2.7, 80° C., 2 h): significantly reduced
- degradation of 5-CQA (pH 4, 80° C., 2 h): almost not degraded
SMILES: O=C(/C=C/c1ccc(O)c(O)c1)O[C@@H]1C[C@@](O)(C(=O)O)C[C@@H](O)[C@@H]1O [5-CQA, 5-caffeoyl quinic acid]
- ester as compared to 5-CQA (pH 1, 80° C., 2 h): same amounts of the ester as compared to 5-CQA
- transformation of 5-CQA into its ethylester (pH 1, 80° C., 2 h): rapid transformation of 5-CQA into its ester
- degradation of 5-CQA (pH 12, 80° C., 2 h): hydrolysis of 5-CQA yielding caffeic and quinic acid
